Where “and” joins values, the source holds several entries; their conditions need not be identical. Equal entries are not always repeated. Where two headings read alike, the source gives them in different places.
Experiments:
domestic flies [1] = assay: insecticidal activity, laboratory test in gauze boxes; type: in vivo; conditions: 2% solution in 5% aqueous glucose; observed in 48-72 hours
Protocol: The compound obtained was used for preparing an insecticidal composition which was a 2% solution of the compound in a 5% aqueous solution of glucose. The test for activity of the insecticidal composition of the invention was conducted on domestic flies. Into gause 10x10 cm boxes /6 boxes/ 6-7-day flies were placed in the number of 50 individuals per box, which were of both sexes. The Petri dishes containing the insecticidal composition of the invention were put into 5 boxes. The observations for fly death were carried out in 48-72 hours. The Petri dish containing a 5% aqueous glucose solution were placed into a control box.

domestic flies [2] = assay: insecticidal activity, full-scale (large-scale) test in premises; type: in vivo; conditions: 2% solution, 2-3 dishes per 20 m²; 72 hours
Protocol: The full-scale tests for activity of the insecticidal composition of the invention to domestic flies in habitable and industrial premises were carried out as follows. The Petri dishes containing a 2% solution of the insecticidal composition of the invention were located according 2-3-dishes per 20 m². The composition activity was evaluated by a direct estimation of killed insects in 72 hours or by using an adhesive tape to count the number of flies on its surface prior to and after conducting the test.

Hepatitis B virus = assay: virulicidal activity, HBsAg titer in blood serum
From the text: table ratio instead of the test composition.

Meningopneumonia virus = test system: Meningopneumonia virus; set-up: species or system meningopneumonia pathogene/MP strain/
Influenza A viruses = assay: virulicidal activity, virus titer in allantoic fluid by hemagglutination-inhibition
Escherichia coli = assay: microbe, parasite or virus in culture; type: cell-based; conditions: for killing at 0.2 %: Escherichia coli, read-out: Death of micro-organisms, % E.coli
Staphylococcus aureus = assay: microbe, parasite or virus in culture; type: cell-based; conditions: for killing at 0.2 %: Staphylococcus aureus, read-out: Death of micro-organisms, % S.aureus
[3] = concentration 1.0 % by mass, 30 min
[4] = concentration 1.0 % by mass, 60 min
[5] = concentration 2.0 % by mass, 30 min
[6] = concentration 2.0 % by mass, 60 min

CC(C)OP(=NC(CCl)C(O)c1ccc([N+](=O)[O-])cc1)(OC(C)C)OC(C)C (stereo not drawn) [Example 6, tri-isopropoxyphosphazo-1-para-nitrophenyl-1-chloro-3-propanol]
Death of flies, % Tests in laboratory (domestic flies [1]): 90.9% | Death of flies, % Tests in large-scale (domestic flies [2]): 89.0% | Virulicidal activity (%) under exposure 30 min (Hepatitis B virus; concentration 1.0 % by mass): 100.0% | Virulicidal activity (%) under exposure 60 min (Hepatitis B virus; concentration 1.0 % by mass): 100.0% | Virulicidal activity (%) under exposure 30 min (Hepatitis B virus; concentration 2.0 % by mass): 100,0% | Virulicidal activity (%) under exposure 60 min (Hepatitis B virus; concentration 2.0 % by mass): 100,0% | Virulicidal activity (%) under exposure 30 min (Meningopneumonia virus): 99.0% and 100.0% | Virulicidal activity (%) under exposure 60 min (Meningopneumonia virus): 100.0% | Virulicidal activity (%) under exposure 30 min (Influenza A viruses; concentration 1.0 % by mass): 75.0% | Virulicidal activity (%) under exposure 60 min (Influenza A viruses; concentration 1.0 % by mass): 98.0% | Virulicidal activity (%) under exposure 30 min (Influenza A viruses; concentration 2.0 % by mass): 93.8% | Virulicidal activity (%) under exposure 60 min (Influenza A viruses; concentration 2.0 % by mass): 100.0%

Cc1ccc(OP(=NC(CO)C(O)c2ccc([N+](=O)[O-])cc2)(Oc2ccc(C)cc2)Oc2ccc(C)cc2)cc1 (stereo not drawn) [Example 40, tri-para-methylphenoxy-1-para-nitrophenyl-1,3-dihydroxyisopropyl]
killing at 0.2 % (Escherichia coli): 90% | killing at 0.2 % (Staphylococcus aureus): 70% | Virulicidal activity (%) to poliomyelitis virus under exposure of 30 min (poliomyelitis virus; [3]): 50.0% | Virulicidal activity (%) to poliomyelitis virus under exposure of 60 min (poliomyelitis virus; [4]): 70.0% | Virulicidal activity (%) to poliomyelitis virus under exposure of 30 min (poliomyelitis virus; [5]): 80.0% | Virulicidal activity (%) to poliomyelitis virus under exposure of 60 min (poliomyelitis virus; [6]): 90.0%

CCCOP(=NC(CCl)C(Cl)c1ccc([N+](=O)[O-])cc1)(OCCC)OCCC (stereo not drawn) [Example 11, tri-n-propoxyphosphazo-1-para-nitrophenyl-1,3-dichloropropane]
Death of flies, % Tests in laboratory (domestic flies [1]): 89.0% | Death of flies, % Tests in large-scale (domestic flies [2]): 89.0%

O=[N+]([O-])c1ccc(C(O)C(CO)N=P(Cl)(Cl)Oc2ccc(Cl)cc2)cc1 (stereo not drawn) [Example 39, para-chlorophenoxydichlorophosphazo-1-para-nitrophenyl-1,3-dihydroxyisopropyl]
Death of micro-organisms, % E.coli (Escherichia coli): 100.0% | Death of micro-organisms, % S.aureus (Staphylococcus aureus): 100.0% | Virulicidal activity (%) to poliomyelitis virus under exposure of 30 min (poliomyelitis virus): 70.0% and 95.0% | Virulicidal activity (%) to poliomyelitis virus under exposure of 60 min (poliomyelitis virus): 90.0% and 100.0%

CCCCOP(=NC(CCl)C(O)c1ccc([N+](=O)[O-])cc1)(OCCCC)OCCCC (stereo not drawn) [Example 7, tri-n-butoxyphosphazo-1-paranitrophenyl-1-chloro-3-propanol]
Death of flies, % Tests in laboratory (domestic flies [1]): 96.0% | Death of flies, % Tests in large-scale (domestic flies [2]): 96.8%

O=[N+]([O-])c1ccc(C(O)C(CO)N=P(Oc2ccc(Cl)cc2)(Oc2ccc(Cl)cc2)Oc2ccc(Cl)cc2)cc1 (stereo not drawn) [Example 41, tri-para-chlorophenoxyphosphazo-1-para-nitrophenyl-1,3-dihydroxyisopropyl]
killing at 0.2 % (Escherichia coli): 100% | killing at 0.2 % (Staphylococcus aureus): 90% | Virulicidal activity (%) to poliomyelitis virus under exposure of 30 min (poliomyelitis virus; [3]): 50.0% | Virulicidal activity (%) to poliomyelitis virus under exposure of 60 min (poliomyelitis virus; [4]): 80.0% | Virulicidal activity (%) to poliomyelitis virus under exposure of 30 min (poliomyelitis virus; [5]): 90.0% | Virulicidal activity (%) to poliomyelitis virus under exposure of 60 min (poliomyelitis virus; [6]): 100.0%

O=[N+]([O-])c1ccc(C(O)C(CO)N=P(OC(CCl)c2ccccc2)(OC(CCl)c2ccccc2)OC(CCl)c2ccccc2)cc1 (stereo not drawn) [Example 4, tris/2-chloro-1-phenylethoxy/phosphazo-1-para-nitrophenyl-1,3-propandiol]
Death of flies, % Tests in laboratory (domestic flies [1]): 73.4% | Death of flies, % Tests in large-scale (domestic flies [2]): 75.0%

O=[N+]([O-])c1ccc(C(O)C(CO)N=P(Oc2ccccc2)(Oc2ccccc2)Oc2ccccc2)cc1 (stereo not drawn) [Example 21, triphenoxyphosphazo-1-para-nitrophenyl-1,3-propanol]
Virulicidal activity (%) under exposure 30 min (Hepatitis B virus; concentration 1.0 % by mass): 50.0% | Virulicidal activity (%) under exposure 60 min (Hepatitis B virus; concentration 1.0 % by mass): 87.5% | Virulicidal activity (%) under exposure 30 min (Hepatitis B virus; concentration 2.0 % by mass): 100,0% | Virulicidal activity (%) under exposure 60 min (Hepatitis B virus; concentration 2.0 % by mass): 100,0% | Virulicidal activity (%) under exposure 30 min (Influenza A viruses; concentration 1.0 % by mass): 87.5% | Virulicidal activity (%) under exposure 60 min (Influenza A viruses; concentration 1.0 % by mass): 100.0%

O=[N+]([O-])c1ccc(C(O)C(CO)N=P(Cl)(Oc2ccc(Cl)cc2)Oc2ccc(Cl)cc2)cc1 (stereo not drawn) [Example 37, di-para-chlorophenoxychlorophosphazo-1-para-nitrophenyl-1,3-dihydroxyisopropyl]
Death of micro-organisms, % E.coli (Escherichia coli): 100.0% | Death of micro-organisms, % S.aureus (Staphylococcus aureus): 100.0% | Virulicidal activity (%) to poliomyelitis virus under exposure of 30 min (poliomyelitis virus): 60.0% and 90.0% | Virulicidal activity (%) to poliomyelitis virus under exposure of 60 min (poliomyelitis virus): 90.0% and 100.0%

O=[N+]([O-])c1ccc(C(Cl)C(CCl)N=P(OC(CCl)c2ccccc2)(OC(CCl)c2ccccc2)OC(CCl)c2ccccc2)cc1 (stereo not drawn) [Example 14, tris-/2-chloro-1-phenoxy/phosphazo-1-para-nitrophenyl-1,3-dichloropropane]
Death of flies, % Tests in laboratory (domestic flies [1]): 71.3% | Death of flies, % Tests in large-scale (domestic flies [2]): 70.0% | Virulicidal activity (%) under exposure 30 min (Hepatitis B virus; concentration 1.0 % by mass): 100.0% | Virulicidal activity (%) under exposure 60 min (Hepatitis B virus; concentration 1.0 % by mass): 100.0% | Virulicidal activity (%) under exposure 30 min (Hepatitis B virus; concentration 2.0 % by mass): 100,0% | Virulicidal activity (%) under exposure 60 min (Hepatitis B virus; concentration 2.0 % by mass): 100,0% | Virulicidal activity (%) under exposure 30 min (Meningopneumonia virus): 50.0% and 90.0% | Virulicidal activity (%) under exposure 60 min (Meningopneumonia virus): 75.0% and 100.0% | Virulicidal activity (%) under exposure 30 min (Influenza A viruses; concentration 1.0 % by mass): 75.0% | Virulicidal activity (%) under exposure 60 min (Influenza A viruses; concentration 1.0 % by mass): 93.8% | Virulicidal activity (%) under exposure 30 min (Influenza A viruses; concentration 2.0 % by mass): 93.8% | Virulicidal activity (%) under exposure 60 min (Influenza A viruses; concentration 2.0 % by mass): 100.0%

O=[N+]([O-])c1ccc(C(O)C(CO)N=P(Cl)(Oc2ccccc2)Oc2ccccc2)cc1 (stereo not drawn) [Example 36, diphenoxychlorophosphazo-1-nitrophenyl-1,3-dihydroxypropyl]
Death of micro-organisms, % E.coli (Escherichia coli): 100.0% | Death of micro-organisms, % S.aureus (Staphylococcus aureus): 90.0% | Virulicidal activity (%) to poliomyelitis virus under exposure of 30 min (poliomyelitis virus): 50.0% and 90.0% | Virulicidal activity (%) to poliomyelitis virus under exposure of 60 min (poliomyelitis virus): 80.0% and 90.0%

CCCCOP(=NC(CCl)C(Cl)c1ccc([N+](=O)[O-])cc1)(OCCCC)OCCCC (stereo not drawn) [Example 13, tri-n-butoxyphosphazo-1-para-nitrophenyl-1,3-dichloropropane]
Death of flies, % Tests in laboratory (domestic flies [1]): 92.0% | Death of flies, % Tests in large-scale (domestic flies [2]): 91.0% | Virulicidal activity (%) under exposure 30 min (Hepatitis B virus; concentration 1.0 % by mass): 75.0% | Virulicidal activity (%) under exposure 60 min (Hepatitis B virus; concentration 1.0 % by mass): 100.0% | Virulicidal activity (%) under exposure 30 min (Hepatitis B virus; concentration 2.0 % by mass): 100,0% | Virulicidal activity (%) under exposure 60 min (Hepatitis B virus; concentration 2.0 % by mass): 100,0% | Virulicidal activity (%) under exposure 30 min (Meningopneumonia virus): 75.0% and 99.0% | Virulicidal activity (%) under exposure 60 min (Meningopneumonia virus): 100.0% | Virulicidal activity (%) under exposure 30 min (Influenza A viruses; concentration 1.0 % by mass): 50.0% | Virulicidal activity (%) under exposure 60 min (Influenza A viruses; concentration 1.0 % by mass): 75.0% | Virulicidal activity (%) under exposure 30 min (Influenza A viruses; concentration 2.0 % by mass): 93.8% | Virulicidal activity (%) under exposure 60 min (Influenza A viruses; concentration 2.0 % by mass): 100.0%

CC(C)OP(=NC(CO)C(O)c1ccc([N+](=O)[O-])cc1)(OC(C)C)OC(C)C (stereo not drawn) [Example 3, triisopropoxyphosphazo-1-para-nitrophenyl-1,3-propandiol]
Death of flies, % Tests in laboratory (domestic flies [1]): 82.0% | Death of flies, % Tests in large-scale (domestic flies [2]): 80.0%

O=[N+]([O-])c1ccc(C(O)C(CCl)N=P(OC(CCl)c2ccccc2)(OC(CCl)c2ccccc2)OC(CCl)c2ccccc2)cc1 (stereo not drawn) [Example 8, tris/2-chlorol-phenylethoxy/-phosphazo-1-paranitrophenyl-1-chloro-3-propanol]
Death of flies, % Tests in laboratory (domestic flies [1]): 84.3% | Death of flies, % Tests in large-scale (domestic flies [2]): 84.0%

CC(C)OP(=NC(CCl)C(Cl)c1ccc([N+](=O)[O-])cc1)(OC(C)C)OC(C)C (stereo not drawn) [Example 12, triisopropoxyphosphazo-1-paranitrophenyl]
Death of flies, % Tests in laboratory (domestic flies [1]): 92.0% | Death of flies, % Tests in large-scale (domestic flies [2]): 90.0%

Source: patent EP0414894A1 (priority 1989, dated 1990)
